Reference: patent publication US20250338846A1, “COMPOSITIONS HAVING PESTICIDAL UTILITY AND PROCESSES RELATED THERETO” (CORTEVA AGRISCIENCE, LLC, priority 2022, published 2025)

Key:
Type in all cases: in vivo
[1] = system: Cotton Aphid (Aphis gossypii, APHIGO); experiment: Bioassay 7: Cotton Aphid, foliar spray on infested cotton seedlings, live aphids counted three days after treatment; details: AI alone 5 (10^-5) Wt %
Procedure: where X=No. of live larvae on solvent check and Y=No. of live larvae on treated diet. In Table B6 the “Expected % Control” was calculated using the method described in Colby S. R., Weeds, 1967, 15, 20-22. Bioassay 7: Cotton Aphid (Aphis gossypii, APHIGO) (“CA”).
Stock solutions of Formula One and one or more of the active ingredients were prepared at concentrations of 1 mg/mL using a 1:1 mixture of acetone: methanol as a diluent. The stock solutions were prepared with Formula One as well as for each of the active ingredients individually. Test solutions were prepared from the stock solutions. Test solutions were prepared containing Formula One, the individual active ingredients, and mixtures of Formula One with each of the active ingredients. The test solutions for Formula One and the individual active ingredients were prepared by adding 1.5 mL of stock solution to a 30 mL glass vial, then adding 1.5 mL of 1:1 acetone: methanol solvent, followed by the addition of 27 mL water with 0.025% Tween® 20 to create a […]. Each test solution was serially diluted to create desired doses of test solutions ranging from 0.000001 to 0.0025% (w/v). The test solutions were tested against CA using the following procedure: cotton seedlings were grown in 3-inch pots with one true leaf (2-5 cm in diameter) were used as test substrate. The seedlings were infested with 20-50 CA (wingless adult and nymph stages) one day prior to chemical application. Four pots with individual seedlings were used for each treatment. A hand-held aspirator-type sprayer was used for spraying a solution to both sides of […] leaves until runoff. Reference plants (solvent check) were sprayed with the diluent only (0.025% Tween® 20 and 10% acetone:methanol (1:1) in water). Treated plants were held in a holding room for three days at approximately 25° C. and ambient relative humidity (RH about 20% to about 45%) prior to grading. Evaluation was conducted by counting the number of live aphids per plant under a microscope three days after treatment. Percent control was measured using Abbott's correction formula (W. S. Abbott, J. Econ. Entomol. 18 (1925), pp. 265-267) as follows:
where X=No. of live aphids on solvent check plants and Y=No. of live aphids on treated plants. In Table B1 the “Expected % Control” was calculated using the method described in Colby S. R., Weeds, 1967, 15, 20-22. Bioassay 8: Sweet Potato Whitefly (Bemisia tabaci, BEMITA) (“SPW”).

[2] = system: Diamondback Moth (Plutella xylostella, PLUTMA); experiment: Bioassay 9: Diamondback Moth, leaves of track-sprayed cabbage plants, mortality and feeding damage scored
Procedure: where X=No. of live nymphs on solvent check plants and Y=No. of live nymphs on treated plants. In Table B2 the “Expected % Control” was calculated using the method described in Colby S. R., Weeds, 1967, 15, 20-22. Bioassay 9: Diamondback Moth (Plutella xylostella, PLUTMA) (DBM).
Stock solutions were prepared with Formula One as well as for each of the active ingredients individually. Test solutions were prepared from the stock solutions. Test solutions were prepared containing Formula One, the individual active ingredients, and mixtures of Formula One with each of the active ingredients. The test solution for Formula One was prepared by adding 500 μL of the stock solution to a 25 mL glass vial, then adding 500 μL of a 9:1 mixture of acetone: water. The individual active ingredients were prepared by adding 500 μL of stock solution to a 25 mL glass vial, then adding 500 μL of a 9:1 mixture of acetone: water. The test solutions containing mixtures of Formula One and the individual active ingredients were prepared by adding 500 μL of the active ingredient stock solution to a 25 mL glass vial, followed by 500 μL of the Formula One stock solution, creating a test solution containing 4000 ppm Formula One and 0.4% (w/v) of the active ingredient. Each test solution was serially diluted to create desired doses of test solutions (0.4% (w/v), 0.04% (w/v), 0.004% (w/v), 0.0004% (w/v), 0.00004% (w/v), and 0.000004% (w/v)). In test solutions containing mixtures of Formula One and the active ingredients, the active ingredients were diluted as described above, but the Concentration of Formula One was held constant (0.4% (w/v)). The highest dose test solution (0.4% (w/v)) was discarded, leaving 5 test solution concentrations used in the test.
Cabbage seedlings, grown in 3-inch pots with 2-3 small (3-5 centimeter (cm)) true leaves, were used as test substrate. Cabbage plants were sprayed with desired concentrations of Formula One and active ingredients or their mixtures using a track Sprayer. Reference plants (solvent check) were sprayed with diluent only (0.025% Tween® 20 and 10% acetone:methanol (1:1) in water). The sprayed cabbage plants were allowed to dry for 1 hour, after which leaves from each treatment were placed in a cell of a plastic tray. One leaf per cell and 8 replicates for each cell. The tested doses ranged between 0.000001% (w/v) to 0.0002% (w/v). One 2nd instar DBM larvae were placed in each cell of the tray and allowed to feed on the cabbage foliage for […] after which the mortality and feeding damage were scored. Test trays were held at approximately 26° C. and ambient relative humidity (RH) prior to grading. The number of live larvae were recorded from each cell and percent control was measured using Abbott's correction formula (W. S. Abbott, J. Econ. Entomol. 18 (1925), pp. 265-267) as follows:
where X=No. of live larvae on solvent check and Y=No. of live larvae on treated diet. In Table B6 the “Expected % Control” was calculated using the method described in Colby S. R., Weeds, 1967, 15, 20-22.

[3] = system: Western Flower Thrips (Frankliniella occidentalis, FRANOC); experiment: Bioassay 3: Western Flower Thrips, cotton leaf disc dip, live WFT counted 3 days after treatment; details: AI alone 0.0003125 % w/v
Procedure: (§1) Stock solutions of Formula One and various active ingredients were prepared initially at a concentration of 8 mg/ml for Formula One and 1 mg/mL for the active ingredients, respectively, using acetone as a diluent. Stock solutions were prepared with Formula One as well as for each of the active ingredients individually. Test solutions were prepared from the stock solutions. Test solutions were prepared containing Formula One, the individual active ingredients, and mixtures of Formula One with each of the active ingredients. The test solution for Formula One was prepared by adding 500 μL of the stock solution to a 25 mL glass vial, then adding 500 μL of acetone, followed by the addition of 9 mL water with 0.025% Tween®) 20 to create a 0.04% (w/v) solution. The test solutions of the individual active ingredients were prepared by adding 500 μL of stock solution to a 25 mL glass vial, then adding 500 μL of acetone, followed by the addition of 9 mL water with 0.025% Tween®) 20 to create a 0.005% (w/v) solution. The test solutions containing mixtures of Formula One and the individual active ingredients were prepared by adding 500 μL of the active ingredient stock solution to a 25 mL glass vial, followed by 500 μL of the Formula One stock solution, then by the addition of 9 mL water with 0.025% Tween®) 20 to create a test solution containing 0.04% (w/v) Formula One and 0.005% (w/v) of the active ingredient. Each test solution was serially diluted to create desired doses of test solutions (0.005% (w/v), 0.00125% (w/v), 0.0003125% (w/v), 0.000078% (w/v), and 0.0000195% (w/v)). In test solutions containing mixtures of Formula One and the active ingredients, the active ingredients were diluted as described above, but the Concentration of Formula One was held constant (0.04% (w/v)).
The test solutions were tested against WFT using the following procedure: Leaf discs (2.7 cm in diameter) were cut from the true leaves of cotton plants. Leaf discs were dipped into the test solutions and shaken to ensure complete coverage of the leaf disc and then placed in Millipore®) PetriSlides containing a filter paper disc. Treated leaf discs were air dried for approximately 1 hour. Each leaf disc was infested with 5 WFT (9-10-day old nymphs) by placement on each leaf disc, and the PetriSlides were capped to prevent escape. Each treatment was replicated three times and the test treatments were held at approximately 26° C. and ambient relative humidity (RH) prior to grading. Reference discs (solvent check) were treated with the diluent only. Evaluation was conducted by counting the number of live WFT under magnification 3 days after treatment. Percent control was measured using Abbott's correction formula (W. S. Abbott, J. Econ. Entomol. 18 (1925), pp. 265-267) as follows:
(§2) where X=No. of live nymphs on solvent check leaf discs and Y=No. of live nymphs on treated leaf discs. In Table B3 the “Expected % Control” was calculated using the method described in Colby S. R., Weeds, 1967, 15, 20-22. Bioassay 4: Western Tarnished Plant Bug (Lygus hesperus, LYGUHE) (“WTPB”).

[4] = system: Western Tarnished Plant Bug (Lygus hesperus, LYGUHE); experiment: Bioassay 4: Western Tarnished Plant Bug, soaked green bean segments, living nymphs 3 days after application; details: AI alone 0.005 % w/v
Procedure: as §2
as §1, with “Stock” for “Stock solutions of Formula One and various active ingredients were prepared initially at a concentration of 8 mg/ml for Formula One and 1 mg/mL for the active ingredients, respectively, using acetone as a diluent. Stock”
The test solutions were tested against WTPB using the following procedure: Fresh green beans were cut into segments approximately 1.5 inches long. Four bean segments were added to each 25 mL vial containing the test solutions and soaked for approximately 15 minutes. After soaking, a single bean fragment was removed and placed into a single well of a 32-well rearing tray (Frontier Agricultural Sciences™), on top of a round filter paper disc. A reference treatment (solvent check) was treated with the diluent only. Each treatment was replicated four times and the test treatments were held at approximately 26° C. and ambient relative humidity (RH) prior to grading. Bean segments were allowed to air dry for ˜30 minutes. Three WTPB nymphs were added to and contained in each well with a clear perforated adhesive lid. The total number of living WTPB nymphs was recorded 3 days after application. Scoring was based off the total number of living nymphs out of all four replicates. Percent control was measured using Abbott's correction formula (W. S. Abbott, J. Econ. Entomol. 18 (1925), pp. 265-267) as follows:
X=No. of live nymphs on solvent check and Y=No. of live nymphs on treated bean segments. In Table B4 the “Expected % Control” was calculated using the method described in Colby S. R., Weeds, 1967, 15, 20-22. Bioassay 5: Neotropical Brown Stink Bug (Euschistus heros, EUSCHE) (“BSB”).

Structure (SMILES)	Average % Control A1 [1] [%]	Average % Control AI ([2]; AI alone 5 (10^-5) Wt %) [%]	Average % Control AI ([2]; AI alone 10 (10^-5) Wt %) [%]	Average % Control AI ([2]; AI alone 20 (10^-5) Wt %) [%]	Average % Control AI [3] [%]	Average % Control AI [4] [%]
CC1(C)C(C=C(Cl)Cl)C1C(=O)OC(C#N)c1ccc(F)c(Oc2ccccc2)c1 (stereo not drawn) [Beta-Cyfluthrin]	21.34	13.64	27.27	72.73	–	–
O=c1c(-c2cccc(C(F)(F)F)c2)c([O-])[n+](Cc2cncnc2)c2ccccn12 [Triflumezopyrim]	–	–	–	–	7	9
